Assay results from patent publication US9586986B2, “Substituted 7-deazapurine ribonucleosides for therapeutic uses” (Institute of Organic Chemistry and Biochemistry ASCR, v.v.i., priority 2014, dated 2017).
Like-named read-outs stand apart in the source and are kept apart here.

Columns and labels:
[1] = test system: HL60; experiment: XTT cytotoxicity assay, HL-60; type: cell-based; conditions: Homo sapiens, read-out: XTT, IC50 HL60
Method: HL-60, Hela S3 and HepG2 cell lines (ATCC) were grown in RPMI-1640 or DMEM medium supplemented with 10% fetal calf serum, […] of streptomycin, 200 U/mL of penicillin G and 4 mM glutamine in a humidified atmosphere containing 5% CO2 at 37° C. Sensitivity of these cell lines to the synthesized compounds was assessed with the use of XTT cell proliferation kit II (Roche Diagnostics GmbH, Mannheim, Germany) according to the manufacturer's instructions. Briefly, cells were seeded in a 96-well plate at a density of 10,000 cells per well (90 μL). After 24 h, 10 μL of the tested compounds were added to the culture media at desired concentration range and incubated for 72 h. After that 50 μL of the XTT solution was added (1 mg/mL XTT+0.383 mg/mL N-methyl dibenzopyrazine methyl sulfate). The absorbance was recorded at 495 nm following a 2 h-incubation with the dye. IC50 values were determined by non-linear regression method using GraphPad Prism version 5.00 for Windows (GraphPad Software, La Jolla, Calif., USA).
In addition, the anti-proliferative effect was tested against a human T-lymphoblastic leukemia line CCRF-CEM, promyelocytic leukemia HL-60 and cervical carcinoma HeLa S3 growing in liquid suspension. Cell viability was determined following a 3-day incubation using 2,3-bis-(2-methoxy-4-nitro-5-sulfophenyl)-2H-tetrazolium-5-carboxanilide (XTT) assay (ref.: Scudiero, D. A.; Shoemaker, R. H.; Paull, K. D.; Monks, A.; Tierney, S.; Nofziger, T. H.; Currens, M. J.; Seniff, D.; Boyd M. R. Evaluation of a Soluble Tetrazolium/Formazan Assay for Cell Growth and Drug Sensitivity in Culture Using Human and Other Tumor Cell Lines. Cancer Res. 1988, 48, 4827-4833).

SMILES | IC50 ([1]; HL-60, 72 h incubation) | melting point | IC50 ([1]; HL-60, 72 h)
COc1ncnc2c1c(-c1ccccc1)cn2[C@@H]1O[C@H](CO)[C@@H](O)[C@H]1O [Compound 1e, 4-Methoxy-5-phenyl-7-(β-D-ribofuranosyl)-7H-pyrrolo[2,3-d]pyrimidine] | > 20 µM | 117 to 120 °C | 
COc1ncnc2c1c(-c1cc3ccccc3o1)cn2[C@@H]1O[C@H](CO)[C@@H](O)[C@H]1O [Compound 1f, 5-(Benzofuran-2-yl)-4-methoxy-7-(β-D-ribofuranosyl)-7H-pyrrolo[2,3-d]pyrimidine] | 4.47 µM |  | 
C#Cc1cn([C@@H]2O[C@H](CO)[C@@H](O)[C@H]2O)c2ncnc(OC)c12 [Compound 1g, 5-Ethynyl-4-methoxy-7-(β-D-ribofuranosyl)-7H-pyrrolo[2,3-d]pyrimidine] | 0.19 µM |  | 
CSc1ncnc2c1c(-c1ccoc1)cn2[C@@H]1O[C@H](CO)[C@@H](O)[C@H]1O [Compound 2b, 5-(Furan-3-yl)-4-methylsulfanyl-7-(β-D-ribofuranosyl)-7H-pyrrolo[2,3-d]pyrimidine] | 0.36 µM | 121 to 124 °C | 
CSc1ncnc2c1c(-c1cccs1)cn2[C@@H]1O[C@H](CO)[C@@H](O)[C@H]1O [Compound 2c, 4-Methylsulfanyl-7-(β-D-ribofuranosyl)-5-(thiophen-2-yl)-7H-pyrrolo[2,3-d]pyrimidine] | 1.13 µM |  | 
CSc1ncnc2c1c(-c1ccsc1)cn2[C@@H]1O[C@H](CO)[C@@H](O)[C@H]1O [Compound 2d, 4-Methylsulfanyl-7-(β-D-ribofuranosyl)-5-(thiophen-3-yl)-7H-pyrrolo[2,3-d]pyrimidine] | 4.59 µM | 192 to 193 °C | 
CSc1ncnc2c1c(-c1ccccc1)cn2[C@@H]1O[C@H](CO)[C@@H](O)[C@H]1O [Compound 2e, 4-Methylsulfanyl-5-phenyl-7-(β-D-ribofuranosyl)-7H-pyrrolo[2,3-d]pyrimidine] | > 20 µM | 169 to 170 °C | 
CSc1ncnc2c1c(-c1cc3ccccc3o1)cn2[C@@H]1O[C@H](CO)[C@@H](O)[C@H]1O [Compound 2f, 5-(Benzofuran-2-yl)-4-methylsulfanyl-7-(β-D-ribofuranosyl)-7H-pyrrolo[2,3-d]pyrimidine] | 1.21 µM |  | 
C#Cc1cn([C@@H]2O[C@H](CO)[C@@H](O)[C@H]2O)c2ncnc(SC)c12 [Compound 2g, 5-Ethynyl-4-methylsulfanyl-7-(β-D-ribofuranosyl)-7H-pyrrolo[2,3-d]pyrimidine] | 0.05 µM |  | 
CSc1ncnc2c1c(I)cn2[C@@H]1O[C@H](CO)[C@@H](O)[C@H]1O [Compound 2h, 5-Iodo-4-methylsulfanyl-7-(β-D-ribofuranosyl)-7H-pyrrolo[2,3-d]pyrimidine] | 0.05 µM | 217 to 219 °C | 
CNc1ncnc2c1c(-c1ccoc1)cn2[C@@H]1O[C@H](CO)[C@@H](O)[C@H]1O [Compound 3b, 5-(Furan-3-yl)-4-methylamino-7-(β-D-ribofuranosyl)-7H-pyrrolo[2,3-d]pyrimidine] | > 15 µM | 90 to 97 °C | 
CNc1ncnc2c1c(-c1cccs1)cn2[C@@H]1O[C@H](CO)[C@@H](O)[C@H]1O [Compound 3c, 4-Methylamino-7-(β-D-ribofuranosyl)-5-(thiophen-2-yl)-7H-pyrrolo[2,3-d]pyrimidine] | > 20 µM | 183 to 185 °C | 
CNc1ncnc2c1c(-c1ccsc1)cn2[C@@H]1O[C@H](CO)[C@@H](O)[C@H]1O [Compound 3d, 4-Methylamino-7-(β-D-ribofuranosyl)-5-(thiophen-3-yl)-7H-pyrrolo[2,3-d]pyrimidine] | > 20 µM | 135 to 138 °C | 
CNc1ncnc2c1c(-c1ccccc1)cn2[C@@H]1O[C@H](CO)[C@@H](O)[C@H]1O [Compound 3e, 4-Methylamino-5-phenyl-7-(β-D-ribofuranosyl)-7H-pyrrolo[2,3-d]pyrimidine] | > 20 µM | 149 to 153 °C | 
CNc1ncnc2c1c(-c1cc3ccccc3o1)cn2[C@@H]1O[C@H](CO)[C@@H](O)[C@H]1O [Compound 3f, 5-(Benzofuran-2-yl)-4-methylamino-7-(β-D-ribofuranosyl)-7H-pyrrolo[2,3-d]pyrimidine] | 8.95 µM | 203 to 206 °C | 
C#Cc1cn([C@@H]2O[C@H](CO)[C@@H](O)[C@H]2O)c2ncnc(NC)c12 [Compound 3g, 5-Ethynyl-4-methylamino-7-(β-D-ribofuranosyl)-7H-pyrrolo[2,3-d]pyrimidine] | 9.06 µM |  | 

SMILES | IC50 ([1]; HL-60, 72 h incubation) | melting point | IC50 ([1]; HL-60, 72 h)
CN(C)c1ncnc2c1c(-c1ccoc1)cn2[C@@H]1O[C@H](CO)[C@@H](O)[C@H]1O [Compound 4b, 4-Dimethylamino-5-(furan-3-yl)-7-(β-D-ribofuranosyl)-7H-pyrrolo[2,3-d]pyrimidine] | 1.16 µM | 94 to 97 °C | 
CN(C)c1ncnc2c1c(-c1cccs1)cn2[C@@H]1O[C@H](CO)[C@@H](O)[C@H]1O [Compound 4c, 4-Dimethylamino-7-(β-D-ribofuranosyl)-5-(thiophen-2-yl)-7H-pyrrolo[2,3-d]pyrimidine] | 11.8 µM |  | 
CN(C)c1ncnc2c1c(-c1ccccc1)cn2[C@@H]1O[C@H](CO)[C@@H](O)[C@H]1O [Compound 4e, 4-Dimethylamino-5-phenyl-7-(β-D-ribofuranosyl)-7H-pyrrolo[2,3-d]pyrimidine] | > 20 µM |  | 
CN(C)c1ncnc2c1c(-c1cc3ccccc3o1)cn2[C@@H]1O[C@H](CO)[C@@H](O)[C@H]1O [Compound 4f, 5-(Benzofuran-2-yl)-4-dimethylamino-7-(β-D-ribofuranosyl)-7H-pyrrolo[2,3-d]pyrimidine] | > 20 µM |  | 
Cc1ncnc2c1c(-c1ccco1)cn2[C@@H]1O[C@H](CO)[C@@H](O)[C@H]1O [Compound 5a, 5-(Furan-2-yl)-4-methyl-7-(β-D-ribofuranosyl)-7H-pyrrolo[2,3-d]pyrimidine] | 0.21 µM |  | 
Cc1ncnc2c1c(-c1ccoc1)cn2[C@@H]1O[C@H](CO)[C@@H](O)[C@H]1O [Compound 5b, 5-(Furan-3-yl)-4-methyl-7-(β-D-ribofuranosyl)-7H-pyrrolo[2,3-d]pyrimidine] | > 15 µM |  | 
Cc1ncnc2c1c(-c1cccs1)cn2[C@@H]1O[C@H](CO)[C@@H](O)[C@H]1O [Compound 5c, 4-Methyl-7-(β-D-ribofuranosyl)-5-(thiophen-2-yl)-7H-pyrrolo[2,3-d]pyrimidine] | 5.73 µM | 110 to 111 °C | 
Cc1ncnc2c1c(-c1ccsc1)cn2[C@@H]1O[C@H](CO)[C@@H](O)[C@H]1O [Compound 5d, 4-Methyl-7-(β-D-ribofuranosyl)-5-(thiophen-3-yl)-7H-pyrrolo[2,3-d]pyrimidine] | 0.35 µM |  | 
Cc1ncnc2c1c(-c1ccccc1)cn2[C@@H]1O[C@H](CO)[C@@H](O)[C@H]1O [Compound 5e, 4-Methyl-5-phenyl-7-(β-D-ribofuranosyl)-7H-pyrrolo[2,3-d]pyrimidine] | > 20 µM |  | 
Cc1ncnc2c1c(-c1cc3ccccc3o1)cn2[C@@H]1O[C@H](CO)[C@@H](O)[C@H]1O [Compound 5f, 5-(Benzofuran-2-yl)-4-methyl-7-(β-D-ribofuranosyl)-7H-pyrrolo[2,3-d]pyrimidine] | > 20 µM |  | 
C#Cc1cn([C@@H]2O[C@H](CO)[C@@H](O)[C@H]2O)c2ncnc(C)c12 [Compound 5g, 5-Ethynyl-4-methyl-7-(β-D-ribofuranosyl)-7H-pyrrolo[2,3-d]pyrimidine] | 1.11 µM |  | 
COc1ncnc2c1ccn2[C@@H]1O[C@H](CO)[C@@H](O)[C@H]1O [RC1, reference compound] | > 20 µM |  | 
CSc1ncnc2c1ccn2[C@@H]1O[C@H](CO)[C@@H](O)[C@H]1O [RC2, reference compound] |  |  | 7.19 µM
CNc1ncnc2c1ccn2[C@@H]1O[C@H](CO)[C@@H](O)[C@H]1O [RC3, reference compound] | 12.8 µM |  | 
CN(C)c1ncnc2c1ccn2[C@@H]1O[C@H](CO)[C@@H](O)[C@H]1O [RC4, reference compound] | 0.87 µM |  | 
Cc1ncnc2c1ccn2[C@@H]1O[C@H](CO)[C@@H](O)[C@H]1O [RC5, 4-Methyl-7-(β-D-ribofuranosyl)-7H-pyrrolo[2,3-d]pyrimidine, reference compound] |  |  | 0.02 µM
